# Test results as given in a melting point compilation (Tetko et al.; mined from patent text by program, amines drawn as free bases though some values may be those of a salt).
row,Structure (SMILES),melting point [°C]
1,NC(=O)CC1(c2ccccc2)C(=O)Nc2ccccc21 (configuration not stated),184 to 185
2,CC1(C)[C@H]2CC[C@@H](CC(=O)O)[C@@H]1C2,50 to 53
3,CNC(=O)NC(=S)N1N=C(c2ccc([N+](=O)[O-])cc2)c2cc3c(cc2CC1C)OCO3 (configuration not stated),164
4,CCCCCCc1nccc2c(CC(=O)O)cccc12,152
5,O=C1NC(=O)C(Cc2ccc(OC[C@@H]3CCCN3c3ccccn3)cc2)S1 (some centres not stated),78 to 80
6,COC(=O)c1cccc(CC2COc3ccc(OCc4ccc5ccccc5n4)cc3C2O)c1 (configuration not stated),153 to 154
7,Cc1c(-c2ccc(O)cc2)n(Cc2ccc(OCCN3CCCC(C)C3)cc2)c2ccc(O)cc12 (configuration not stated),121 to 123
8,O=C(NC1C(=O)N(CC23CC4CC(CC(C4)C2)C3)c2ccc(F)cc2N(c2ccccc2)C1=O)Oc1ccccc1 (configuration not stated),156 to 159
9,CCCc1c(OCCCCC(=O)c2ccc3cc(O)c(O)cc3c2)ccc(C(=O)O)c1O,213 to 214
10,Cc1c(CNCC2CCOCC2)[nH]c2ccc(NC(=O)c3ccc(OC[C@@H]4CCCO4)cc3)cc12,146 to 147
11,CC1(C)CC(C)(C)CC(CCCC(=O)O)(NC(=O)CCl)C1,140 to 141
12,CN(C)C(=O)N1CC(Oc2ccc(C(F)(F)F)cc2Cl)C1,106 to 108
13,Cc1ccc(S(=O)(=O)n2ccc3cc(Br)ccc32)cc1,135
14,COc1c(-c2ccccc2)c(C(=O)c2ccc(O)c(Br)c2)n2ccccc12,205
15,CCOC(=O)C1=NNC(C)=C(C(=O)OC)C1c1cccc([N+](=O)[O-])c1 (configuration not stated),174
16,Cc1ccc(-c2ccc(-c3nnnn3CCCCCCc3cccnc3)cc2)cc1C,101 to 103
17,c1coc(Cn2c(NC3CCN(CCNc4nccs4)CC3)nc3ccccc32)c1,153
18,CN(C)C=CC(=O)C(c1ccccc1)c1ccccc1,93 to 94
19,Cc1c(NC(=O)c2ccc(-c3ccc(F)cc3)cc2)ccc2cc(CN(C(C)C)C(C)C)cnc12,179 to 180
20,COCOc1cc(F)ccc1-c1cc(-c2cccc(NC(=O)CCN(C)C(=O)OC(C)(C)C)c2)c(C#N)c(NC(=O)c2ccco2)n1,172 to 174
21,CC1=NNC(c2ccc3c(c2)Nc2nccnc2S3)=NN1,233 to 235
22,O=C(O)COc1ccc2c(=O)c3c(oc2c1)C(=Cc1ccccc1)CC3,277 to 279
23,COC(=O)C1=C(C)NC(C)=C(C(=O)OCC2CC2)C1c1cccc([N+](=O)[O-])c1 (configuration not stated),160 to 163
24,CCOC(=O)/C=C/c1ccc(OS(=O)(=O)C(F)(F)F)c(Cl)c1,59 to 61

row,Structure (SMILES),melting point [°C]
1,COc1cc(C=NO)c2oc(-c3ccc(OC)c(F)c3)cc2c1,208 to 210
2,COc1ccc(C(=O)N2CCN(CCc3ccc(Cl)cc3)CC2)cc1,105 to 106
3,CCCCCCCC/C=C\CCCCCCCC(=O)N[C@H]1CCCNC(=O)C1,66 to 67
4,CC(C)(C)OC(=O)C(CC(O)(C(F)(F)F)C(F)(F)F)NC(=O)OCc1ccccc1 (configuration not stated),83 to 89
5,CC(C)n1nc(-c2c(-c3ccccc3)nn3ccc(C(=O)NC(C)(C)C)cc23)ccc1=O,200 to 201
6,CC(=O)N(C)c1c(I)c(NC(=O)CS(=O)(=O)CC(=O)O)c(I)c(C(=O)O)c1I,> 300
7,Cc1cc(SC(C)C)c(NC(=O)CN2CCN(CCSc3nc4ccccc4[nH]3)CC2)c(SC(C)C)n1,186 to 188
8,Cc1ccccc1C(=O)Nc1ccc(C(=O)N2CCCC(=O)c3cc(Cl)ccc32)c(C)c1,134 to 142
9,COC(=O)c1cccc(-c2cccc(Oc3ccc(Cl)cc3Cl)n2)c1,112 to 113
10,O=C(O)CCN1CCN(c2ccc([N+](=O)[O-])cc2)CC1,250 to 252
11,CCCn1c(=O)[nH]c(=O)c2[nH]c(/C=C/c3ccccc3)nc21,> 295
12,C=CCN1CCN(c2cc3c(cc2Cl)c(=O)c(C(=O)O)cn3CC)CC1,212
13,CN1CCC2(CC1)NC(=S)N(c1ccc(C#N)c(C(F)(F)F)c1)C2=N,> 264
14,N#Cc1ccc(OCCN2CCN(c3cc(Cl)nnc3Cl)CC2)cc1,175 to 177
15,CCOC(=O)C1=C(O)c2ccccc2N(c2ccccc2)C1,103 to 106
16,Cc1ncc(CN2CC=C(/C=C/c3ccccc3)CC2)c(N)n1,199 to 203
17,NNc1nc(Cl)nc2cc3c(cc12)OCO3,> 280
18,N#CC1=C(C#N)SC(c2ccccc2)CS1 (configuration not stated),122 to 124
19,CCCCCCN(C(=O)C(C)C)c1sc(CC)cc1C(=O)O,98 to 101
20,Nc1cc(Cl)ccc1CO,104 to 105
21,COc1ccccc1/C=C/C(=O)Nc1cccc(NC(=N)c2ccccc2)c1,219 to 221
22,Cc1cccc(COCC2OC(n3cc(C(F)(F)F)c(=O)[nH]c3=O)CC2O)c1 (configuration not stated),169 to 171
23,OC(Cn1cncn1)(c1ccccc1)C1OC1c1ccccc1Cl (configuration not stated),180 to 182
24,O=C(O)CCSC1c2ccccc2COc2ccc(OCc3ccc4cc(Cl)ccc4n3)cc21 (configuration not stated),178 to 180

row,Structure (SMILES),melting point [°C]
1,COc1cc(N(C)C)nc(NC(=O)NS(=O)(=O)c2ccccc2Cl)n1,224 to 226
2,CC1=C(C(=O)Nc2ccc(Cl)c(C(=O)OC(C)C)c2)SCCS1,122 to 124
3,Clc1ccc(C2CCN(Cc3cncc(-c4ccccc4)c3)CC2)cc1,142 to 143
4,C(=Cc1cnc2[nH]c3ccccc3c2c1)c1ccccc1,> 220
5,COC(=O)C1=C(C)OC(C)=C(C(=O)OC)C1c1ccccc1,62.5
6,CCC(C)(C)NC(=O)C(=O)c1ccccc1,29 to 30
7,O=C1C=CN=CC1[N+](=O)[O-] (configuration not stated),282 to 284
8,CCCc1c(OCC(O)COc2ccc3c(=O)cc(C(=O)O)oc3c2CCC)ccc(C(C)=O)c1O (configuration not stated),199 to 201
9,Cc1oc(-c2ccccc2)nc1C(O)COc1ccc(CC2SC(=N)NC2=O)cc1 (configuration not stated),238 to 239
10,Cn1c(-c2ccccc2)c(CCCl)sc1=O,88 to 90
11,FC(F)C(F)(F)Sc1nc(-c2ccccc2)c(-c2cccnc2)[nH]1,153 to 154
12,CCc1nn(-c2ccc3cc(N=CN(C)C)c(=O)oc3c2)nc1C,158 to 159
13,Cc1nn(-c2ccc(F)cc2)cc1C(=O)Nc1ccc(N2CCC(O)CC2)c(C#N)c1,224 to 225
14,C[Si](C)(C)CC(CN)CC(=O)O (configuration not stated),167 to 168
15,CCCCc1cc(C(O)=S)cc(N)c1C(=O)c1ccccc1,144 to 145
16,Nc1ncccc1OCc1cccc(Cl)c1F,98 to 100
17,O=c1c2ccccc2nc(CCc2c[nH]c3ccccc23)n1-c1ccccc1,193 to 194
18,CC(C)(C)OC(=O)NC(C)(C)c1ccc(-c2ccno2)cc1,145 to 146
19,C[Si](C)(C)c1cccc2cc(C(=O)Nc3ccc(N4CCC4)nc3)n(Cc3cccc(F)c3)c12,160 to 162
20,Cc1nc(-c2cc(C(=O)O)c(=O)[nH]c2C)cs1,297 to 299
21,Nc1ccccc1CSc1ncc(C(F)(F)F)cc1Cl,98 to 102
22,COCc1cccc2c1ccn2S(=O)(=O)c1ccc(C)cc1,85.5 to 89
23,CC(=O)c1ccc2c(c1)C(=O)C1(CCOC1=O)S2 (configuration not stated),139 to 140
24,CC(CCN)P(C)(=O)O (configuration not stated),68 to 75
